Assay results as given in ChEMBL document CHEMBL1147784, “Crystal structure of human ERK2 complexed with a pyrazolo[3,4-c]pyridazine derivative” (Bioorg Med Chem Lett, 2006).

Biological target: Mitogen-activated protein kinase 1 (Homo sapiens, UniProt P28482)
Test: Inhibitory activity against human ERK2

Mitogen-activated protein kinase 1, sequence (P28482 whole entry): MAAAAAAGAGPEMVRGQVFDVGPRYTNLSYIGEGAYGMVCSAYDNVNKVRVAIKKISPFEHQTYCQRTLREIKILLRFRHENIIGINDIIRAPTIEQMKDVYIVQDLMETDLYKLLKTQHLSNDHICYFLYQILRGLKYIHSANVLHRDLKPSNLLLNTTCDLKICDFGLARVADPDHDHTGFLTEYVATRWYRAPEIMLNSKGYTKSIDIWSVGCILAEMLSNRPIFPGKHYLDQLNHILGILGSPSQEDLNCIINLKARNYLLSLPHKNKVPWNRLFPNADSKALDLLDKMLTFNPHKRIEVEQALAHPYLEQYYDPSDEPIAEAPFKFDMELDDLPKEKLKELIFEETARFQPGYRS

IC50 [µM] | SMILES
5.1 | Nc1nn(CCO)c2nnc(-c3c(-c4ccccc4)nn4ccccc34)cc12
0.56 | C=CCn1nc(N)c2cc(-c3c(-c4ccccc4)nn4ccccc34)nnc21
1.4 | Cn1nc(N)c2cc(-c3c(-c4ccccc4)nn4ccccc34)nnc21
